These are literature values, as cited in EP3332769A1, “SOLID ORAL PHARMACEUTICAL COMPOSITIONS OF TICAGRELOR” (Sanovel Ilac Sanayi ve Ticaret A.S., priority 2016, dated 2018).

SMILES strings stand for the structures. In brackets after ≈: the same amount, converted by molar mass.

In general, aqueous solubility refers to the dissolved amount per volume that the medium holds.

For the data set the following is noted: in water.

As for `CCCSc1nc(N[C@@H]2C[C@H]2c2ccc(F)c(F)c2)c2nnn([C@@H]3C[C@H](OCCO)[C@@H](O)[C@H]3O)c2n1` [Ticagrelor, (1 S,2S,3R,5S)-3-[7-[(1 R,2S)-2-(3,4-Difluorophenyl)cyclopropylamino]-5-(propylthio)-3H-[1,2,3]triazolo[4,5-d]pyrimidin-3-yl] -5-(2-hydroxyethoxy) cyclopentane-1,2-diol], the aqueous solubility is 10 µg/mL (≈ 19.1 µM).
